Where a name gives a salt, the structure may show the parent alone.
Key:
[1] = system: MDH2774; test: cells; design: MTT cell viability assay, absorbance at 575 nm, MDAH 2774 cells; settings: Homo sapiens, MDAH 2774, 48 h
Procedure: (§1) The cell viability effects of 12 candidate compounds were evaluated by MTT assay and compared against a control group (medium containing 0.1% DMSO). The cells were seeded in 96-well plates and pre-cultured for 24 h (1 × 10^5 cells/well). The cells were then incubated for 48 h with the 12 identified compounds (at 0, 3.125, 6.25, 12.5, 25, 50, or 100 µM) dissolved in 0.1% DMSO. After 48 h, MTT solution (2.5 mg/mL in DMEM) was added to the cells and incubated for 1 h. DMSO was added to dissolve the purple crystals, and the absorbance values were measured at 575 nm using a spectrophotometer (SPECTROstar Nano; BMG LABTECH, Offenburg, Germany). Each treatment group has four biological replicates (n = 4). The IC50 values for each compound in each cell line were obtained using the results of the MTT assay and calculated using the GraphPad Prism 6 program (GraphPad Software, Inc., San Diego, CA, USA). A CI higher than 1.0 indicates an antagonistic effect, a CI equal to 1.0 indicates an additive effect, and a CI lower than 1.0 indicates a synergistic effect.

[2] = system: ES2; test: cells; design: MTT cell viability assay, absorbance at 575 nm, ES-2 cells; settings: Homo sapiens, ES-2, 48 h
Procedure: as §1

[3] = system: OVCAR3; test: cells; design: MTT cell viability assay, absorbance at 575 nm, OVCAR-3 cells; settings: Homo sapiens, OVCAR-3, 48 h
Procedure: as §1

[4] = system: SKOV3; test: cells; design: MTT cell viability assay, absorbance at 575 nm, SK-OV-3 cells; settings: Homo sapiens, SK-OV-3, 48 h
Procedure: as §1

[5] = target: T1, Aurora A kinase (Aurora A) (Homo sapiens, UniProt O14965); test: in vitro Aurora A kinase assay kit (Promega V1931, luminescence), dose-dependent at […]; supported by CETSA in MDAH […] and OVCAR-3 cells; format: biochemical
T1 construct: gene AURKA
T1 sequence (O14965 1-403): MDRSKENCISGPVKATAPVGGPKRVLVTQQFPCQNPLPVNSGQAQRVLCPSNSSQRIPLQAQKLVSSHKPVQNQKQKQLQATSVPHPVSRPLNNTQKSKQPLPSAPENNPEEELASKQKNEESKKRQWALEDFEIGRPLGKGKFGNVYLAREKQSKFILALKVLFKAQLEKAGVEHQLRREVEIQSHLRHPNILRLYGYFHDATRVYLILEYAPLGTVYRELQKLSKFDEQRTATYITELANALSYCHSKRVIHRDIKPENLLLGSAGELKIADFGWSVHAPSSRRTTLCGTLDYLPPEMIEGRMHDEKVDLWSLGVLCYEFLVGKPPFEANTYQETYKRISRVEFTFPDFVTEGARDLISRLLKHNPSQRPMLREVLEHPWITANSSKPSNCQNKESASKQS

Row | Compound | IC50 [3] | IC50 [4] | IC50 [1] | IC50 [2] | in vitro Aurora A kinase assay kit (Promega V1931, luminescence), dose-dependent [5]
1 | C/C=C(\C)C(=O)N[C@@H](c1ccccc1)[C@@H](O)C(=O)O[C@H]1C[C@@]2(O)[C@@H](OC(=O)c3ccccc3)[C@@H]3[C@]4(OC(C)=O)CO[C@@H]4C[C@H](O)[C@@]3(C)C(=O)[C@H](OC(C)=O)C(=C1C)C2(C)C [Cephalomannine] | 41.78 ± 0.013 µM | 10.79 ± 0.01 µM | 41.72 ± 0.01 µM | – | –
2 | O=C(O)c1cc(O)c2c(c1)[C@@H]([C@H]1c3cc(C(=O)O)cc(O)c3C(=O)c3c(O[C@@H]4O[C@H](CO)[C@@H](O)[C@H](O)[C@H]4O)cccc31)c1cccc(O[C@@H]3O[C@H](CO)[C@@H](O)[C@H](O)[C@H]3O)c1C2=O [Sennoside B] | – | > 100 µM | – | – | –
3 | COc1ccc2cc3[n+](cc2c1OC)CCc1cc2c(cc1-3)OCO2 [Berberine] | 20.56 ± 0.021 µM | 39.38 ± 0.02 µM | 12.8 ± 1.24 µM | 87.6 ± 0.02 µM | –
4 | O=c1cc(-c2ccc(O)c(-c3c(O)cc(O)c4c(=O)cc(-c5ccc(O)cc5)oc34)c2)oc2cc(O)cc(O)c12 [Amentoflavone] | – | 78.9 ± 0.8 µM | 99.32 ± 0.03 µM | – | –
5 | COc1cc2c(cc1OC)-c1cc3ccc(OC)c(OC)c3c[n+]1CC2 [Palmatine hydrochloride] | – | 59.33 ± 0.02 µM | 51.29 ± 0.34 µM | – | –
6 | COc1ccc2cc1Oc1ccc(cc1)C[C@H]1c3cc(c(OC)cc3CCN1C)Oc1c(O)c(OC)cc3c1[C@H](C2)N(C)CC3 [fangchinoline] | 9.66 ± 0.3 µM | 11.7 ± 1.2 µM | 8.71 ± 0.24 µM | 25.1 ± 0.65 µM | Figure 2C shows that fangchinoline treatment significantly decreased Aurora A enzymatic activity in a dose-dependent manner.

More lines, in order of falling IC50 [4], values ahead:

Row | IC50 [3] | IC50 [4] | Compound | IC50 [1] | IC50 [2] | in vitro Aurora A kinase assay kit (Promega V1931, luminescence), dose-dependent [5]
7 | 22.64 ± 0.03 µM | 34.7 ± 0.02 µM | Cc1cc(O)c2c(c1)C(=O)c1cc(O)cc(O)c1C2=O [Emodin] | 34.32 ± 0.021 µM | 50.2 ± 2.09 µM | –
8 | 25.4 ± 0.68 µM | 26.1 ± 0.49 µM | CN1CCc2cc3c(cc2C(=O)Cc2cc4c(cc2C1)OCO4)OCO3 [Protopine] | – | – | –
9 | 25.8 ± 1.21 µM | 26 ± 0.44 µM | O=C(/C=C/c1ccc(O)cc1)c1ccc(O)cc1O [Isoliquiritigenin] | 50.36 ± 0.48 µM | 51.46 ± 0.32 µM | –
10 | 24.9 ± 0.74 µM | 25.1 ± 1.9 µM | O=C(/C=C/c1ccc(O)cc1)CC(=O)/C=C/c1ccc(O)cc1 [Bisdemethoxycurcumin] | 26 ± 0.53 µM | 45.5 ± 0.5 µM | –
11 | 40.59 ± 0.015 µM | 21.48 ± 0.01 µM | CC(=O)O[C@@]12CO[C@@H]1C[C@H](O)[C@@]1(C)C(=O)[C@H](O)C3=C(C)[C@@H](OC(=O)[C@H](O)[C@@H](NC(=O)OC(C)(C)C)c4ccccc4)C[C@@](O)([C@@H](OC(=O)c4ccccc4)[C@H]21)C3(C)C [Docetaxel] | 24.55 ± 0.011 µM | 50.38 ± 0.25 µM | –
